Measurements from ChEMBL document CHEMBL3085634, “Identification of elaiophylin derivatives from the marine-derived actinomycete Streptomyces sp. 7-145 using PCR-based screening” (2013).
In brackets after ≈: the same amount, converted by molar mass.

Key:
Format in all cases: functional
[1] = tested on: Klebsiella pneumoniae; test: Antibacterial activity against New Delhi metallo-beta-lactamase 1 producing Klebsiella pneumoniae ATCC BAA-2146 assessed as growth inhibition after 18 hrs by agar dilution method; conditions: ATCC BAA-2146, 18 h
[2] = tested on: Escherichia coli; test: Antibacterial activity against extended spectrum beta-lactamase producing Escherichia coli 09-1 assessed as growth inhibition after 18 hrs by agar dilution method; conditions: 09-1, 18 h
[3] = tested on: Escherichia coli; test: Antibacterial activity against beta-lactamase producing Escherichia coli 09-20 assessed as growth inhibition after 18 hrs by agar dilution method; conditions: 09-20, 18 h
[4] = tested on: Morganella morganii; test: Antibacterial activity against beta-lactamase producing Morganella morganii ATCC 25830 assessed as growth inhibition after 18 hrs by agar dilution method; conditions: ATCC 25830, 18 h
[5] = tested on: Klebsiella pneumoniae; test: Antibacterial activity against extended spectrum beta-lactamase producing Klebsiella pneumoniae ATCC 700603 assessed as growth inhibition after 18 hrs by agar dilution method; conditions: ATCC 700603, 18 h
[6] = tested on: Enterococcus faecium; test: Antibacterial activity against vancomycin-sensitive Enterococcus faecium 09-10 assessed as growth inhibition after 18 hrs by agar dilution method; conditions: 09-10, 18 h
[7] = tested on: Pseudomonas aeruginosa; test: Antibacterial activity against beta-lactamase producing Pseudomonas aeruginosa ATCC 27853 assessed as growth inhibition after 18 hrs by agar dilution method; conditions: ATCC 27853, 18 h
[8] = tested on: Staphylococcus aureus; test: Antibacterial activity against methicillin-resistant Staphylococcus aureus R6101 assessed as growth inhibition after 18 hrs by agar dilution method; conditions: R6101, 18 h
[9] = tested on: Staphylococcus epidermidis; test: Antibacterial activity against methicillin-sensitive Staphylococcus epidermidis ATCC 12228 assessed as growth inhibition after 18 hrs by agar dilution method; conditions: ATCC 12228, 18 h
[10] = tested on: Staphylococcus aureus; test: Antibacterial activity against methicillin-resistant Staphylococcus aureus 09-13 assessed as growth inhibition after 18 hrs by agar dilution method; conditions: 09-13, 18 h
[11] = tested on: Enterococcus faecalis; test: Antibacterial activity against vancomycin-resistant Enterococcus faecalis ATCC 51299 assessed as growth inhibition after 18 hrs by agar dilution method; conditions: ATCC 51299, 18 h
[12] = tested on: Staphylococcus aureus; test: Antibacterial activity against methicillin-sensitive Staphylococcus aureus ATCC 29213 assessed as growth inhibition after 18 hrs by agar dilution method; conditions: ATCC 29213, 18 h
[13] = tested on: Enterococcus faecalis; test: Antibacterial activity against vancomycin-sensitive Enterococcus faecalis 09-8 assessed as growth inhibition after 18 hrs by agar dilution method; conditions: 09-8, 18 h
[14] = tested on: Staphylococcus aureus; test: Antibacterial activity against methicillin-sensitive Staphylococcus aureus 09-6 assessed as growth inhibition after 18 hrs by agar dilution method; conditions: 09-6, 18 h
[15] = tested on: Staphylococcus epidermidis; test: Antibacterial activity against methicillin-resistant Staphylococcus epidermidis 09-3 assessed as growth inhibition after 18 hrs by agar dilution method; conditions: 09-3, 18 h
[16] = tested on: Enterococcus faecalis; test: Antibacterial activity against vancomycin-resistant Enterococcus faecalis R6512 assessed as growth inhibition after 18 hrs by agar dilution method; conditions: R6512, 18 h
[17] = tested on: Staphylococcus aureus; test: Antibacterial activity against methicillin-resistant Staphylococcus aureus ATCC 33591 assessed as growth inhibition after 18 hrs by agar dilution method; conditions: ATCC 33591, 18 h
[18] = tested on: Staphylococcus aureus; test: Antibacterial activity against thiostrepton-resistant Staphylococcus aureus ATCC 6538P assessed as growth inhibition after 18 hrs by agar dilution method
[19] = tested on: Micrococcus luteus; test: Antibacterial activity against apramycin-resistant Micrococcus luteus ATCC 10240 assessed as growth inhibition after 18 hrs by agar dilution method; conditions: ATCC 10240, 18 h
[20] = tested on: Enterococcus faecalis; test: Antibacterial activity against vancomycin-sensitive Enterococcus faecalis ATCC 29212 assessed as growth inhibition after 18 hrs by agar dilution method; conditions: ATCC 29212, 18 h
[21] = tested on: Enterococcus faecalis; test: Antibacterial activity against vancomycin-resistant Enterococcus faecalis W4138 assessed as growth inhibition after 18 hrs by agar dilution method; conditions: W4138, 18 h
[22] = tested on: Enterococcus faecium; test: Antibacterial activity against vancomycin-resistant Enterococcus faecium ATCC 700221 assessed as growth inhibition after 18 hrs by agar dilution method; conditions: ATCC 700221, 18 h
[23] = tested on: Staphylococcus epidermidis; test: Antibacterial activity against methicillin-sensitive Staphylococcus epidermidis 09-9 assessed as growth inhibition after 18 hrs by agar dilution method; conditions: 09-9, 18 h

SMILES	MIC [1] [µg/mL]	MIC [2] [µg/mL]	MIC [3] [µg/mL]	MIC [4] [µg/mL]	MIC [5] [µg/mL]	MIC [6] [µg/mL]	MIC [7] [µg/mL]	MIC [8] [µg/mL]	MIC [9] [µg/mL]	MIC [10] [µg/mL]	MIC [11] [µg/mL]	MIC [12] [µg/mL]	MIC [13] [µg/mL]	MIC [14] [µg/mL]	MIC [15] [µg/mL]	MIC [16] [µg/mL]	MIC [17] [µg/mL]	MIC [20] [µg/mL]	MIC [21] [µg/mL]	MIC [22] [µg/mL]	other results
CC[C@@H]1[C@@H](C)O[C@@](OC)([C@@H](C)[C@H](O)[C@H](C)[C@H]2OC(=O)/C=C/C=C/[C@H](C)[C@@H]([C@@H](C)[C@@H](O)[C@H](C)[C@@]3(OC)C[C@@H](O[C@H]4C[C@H](O)[C@H](O)[C@H](C)O4)[C@H](CC)[C@@H](C)O3)OC(=O)/C=C/C=C/[C@@H]2C)C[C@H]1O[C@H]1C[C@H](O)[C@H](O)[C@H](C)O1	> 256	> 256	> 256	> 256	> 256	32 (≈ 30.4 µM)	> 256	–	–	–	–	–	–	–	–	–	–	–	–	–	–
CC[C@H]1OC(=O)[C@H](C)[C@@H](O[C@H]2C[C@@](C)(OC)[C@@H](O)[C@H](C)O2)[C@H](C)[C@@H](O[C@@H]2O[C@H](C)C[C@H](N(C)C)[C@H]2O)[C@](C)(O)C[C@@H](C)CN(C)[C@H](C)[C@@H](O)[C@]1(C)O [AZITHROMYCIN]	64 (≈ 85.4 µM)	64 (≈ 85.4 µM)	> 256	64 (≈ 85.4 µM)	64 (≈ 85.4 µM)	> 256	256 (≈ 342 µM)	> 256	> 256	> 256	> 256	2 (≈ 2.67 µM)	> 256	2 (≈ 2.67 µM)	> 256	> 256	> 256	8 (≈ 10.7 µM)	> 256	> 256	MIC [18]: > 256 µg/mL; MIC [19]: 2 µg/mL (≈ 2.67 µM)
CC[C@H]1OC(=O)[C@H](C)[C@@H](O[C@H]2C[C@@](C)(OC)[C@@H](O)[C@H](C)O2)[C@H](C)[C@@H](O[C@@H]2O[C@H](C)C[C@H](N(C)C)[C@H]2O)[C@](C)(O)C[C@@H](C)C(=O)[C@H](C)[C@@H](O)[C@]1(C)O [ERYTHROMYCIN]	> 256	> 256	> 256	> 256	> 256	> 256	> 256	–	16 (≈ 21.8 µM)	> 256	8 (≈ 10.9 µM)	0.25 (≈ 0.341 µM)	32 (≈ 43.6 µM)	0.25 (≈ 0.341 µM)	> 256	–	256 (≈ 349 µM)	16 (≈ 21.8 µM)	–	64 (≈ 87.2 µM)	–
Cc1onc(-c2ccccc2)c1C(=O)N[C@@H]1C(=O)N2[C@@H]1SC(C)(C)[C@@H]2C(=O)O [OXACILLIN]	> 256	> 256	> 256	256 (≈ 638 µM)	> 256	> 256	> 256	> 256	> 256	> 256	> 256	0.5 (≈ 1.25 µM)	> 256	0.5 (≈ 1.25 µM)	> 256	–	> 256	4 (≈ 9.96 µM)	–	> 256	–
CN[C@H](CC(C)C)C(=O)N[C@H]1C(=O)N[C@@H](CC(N)=O)C(=O)N[C@H]2C(=O)N[C@H]3C(=O)N[C@H](C(=O)N[C@H](C(=O)O)c4cc(O)cc(O)c4-c4cc3ccc4O)[C@H](O)c3ccc(c(Cl)c3)Oc3cc2cc(c3O[C@@H]2O[C@H](CO)[C@@H](O)[C@H](O)[C@H]2O[C@H]2C[C@](C)(N)[C@H](O)[C@H](C)O2)Oc2ccc(cc2Cl)[C@H]1O [VANCOMYCIN]	–	–	–	–	–	–	–	–	0.5 (≈ 0.345 µM)	–	4 (≈ 2.76 µM)	–	1 (≈ 0.69 µM)	–	–	> 256	–	1 (≈ 0.69 µM)	4 (≈ 2.76 µM)	–	MIC [23]: 0.5 µg/mL (≈ 0.345 µM)
